Assay results as given in patent US20240024412A1, “PHARMACEUTICAL COMPOSITION FOR TREATING CDI COMPRISING CLAY MINERAL COMPLEX, AND METHOD FOR PRODUCING SAME” (priority 2020, published 2024).

Test system: C. difficile
Test: mouse acute CDI model using dextran sulfate sodium (DSS), survival rate after oral administration
Type: in vivo
Conditions: for Mouse survival rate (%) according to type of administered drug: 10 mg/kg of vancomycin alone
Procedure: FIG. 3 is a diagram sequentially illustrating a series of experiments of being treated with dextran sodium sulfate (DSS), being infected with C. difficile, being administered with a bentonite-vancomycin complex, and observing survival rates, in order to produce a mouse acute CDI model. […]
In order to set the mixing ratio of the bentonite-antibiotics complex, vancomycin was orally administered at concentrations of 2, 20, and 200 mg/kg in a mouse acute CDI model using DSS, and the results were shown in Table 2 below and FIG. 5.
In order to confirm a synergistic effect on CDI treatment through the bentonite-antibiotics complex, according to the daily intake, the bentonite was administered at a dose concentration of 50 mg/kg and the vancomycin was administered at a dose concentration of 5 mg/kg, and the survival rates of mice were confirmed as compared to cases of administering 10 mg/kg of vancomycin alone, 50 mg/kg of bentonite alone, and saline alone as control groups thereto.

CN[C@H](CC(C)C)C(=O)N[C@H]1C(=O)N[C@@H](CC(N)=O)C(=O)N[C@H]2C(=O)N[C@H]3C(=O)N[C@H](C(=O)N[C@H](C(=O)O)c4cc(O)cc(O)c4-c4cc3ccc4O)[C@H](O)c3ccc(c(Cl)c3)Oc3cc2cc(c3O[C@@H]2O[C@H](CO)[C@@H](O)[C@H](O)[C@H]2O[C@H]2C[C@](C)(N)[C@H](O)[C@H](C)O2)Oc2ccc(cc2Cl)[C@H]1O [Vancomycin, vancomycin]
Mouse survival rate (%) according to type of administered drug (D+14): 1/6 (17%) | Mouse survival rate (%) according to type of administered drug (D-0): 6/6 (100%) | Mouse survival rate (%) according to vancomycin dose (vancomycin 2 mg/kg orally, D+14): (20%) | Mouse survival rate (%) according to vancomycin dose (vancomycin 2 mg/kg orally, D+14, listed as vancomycin): 20% | Mouse survival rate (%) according to vancomycin dose (vancomycin 2 mg/kg orally, D-0): (100%) | Mouse survival rate (%) according to vancomycin dose (vancomycin 20 mg/kg orally, D+14): 5/5 (100%) | Mouse survival rate (%) according to vancomycin dose (vancomycin 20 mg/kg orally, D+14, listed as vancomycin): 100% | Mouse survival rate (%) according to vancomycin dose (vancomycin 20 mg/kg orally, D-0): 5/5 (100%) | Mouse survival rate (%) according to vancomycin dose (vancomycin 200 mg/kg orally, D+14): 5/5 (100%) | Mouse survival rate (%) according to vancomycin dose (vancomycin 200 mg/kg orally, D+14, listed as vancomycin): 100% | Mouse survival rate (%) according to vancomycin dose (vancomycin 200 mg/kg orally, D-0): 5/5 (100%)
